# Assay results as given in publication PMC10337483 (Biochemistry, 2022).
# Entries after “also recorded” stand apart in the source; their conditions may differ.
# Assays:
# [1] = tested on: BV2 microglial cells stimulated with LPS; assay: IL-6 level by ELISA in BV2 microglial cells stimulated with LPS; type: cell-based; conditions: for effect on IL-6 level (pro-inflammatory activity): 0–5 μM, LPS-stimulated BV2, in words; for IL-6 expression (ELISA): 5 μM, LPS-stimulated BV2
# [2] = tested on: BV2 microglial cells stimulated with LPS; assay: IL-10 level by ELISA in BV2 microglial cells stimulated with LPS; type: cell-based; conditions: for expression of the anti-inflammatory cytokines: 5 μM, in words; for effect on IL-10 levels: 0–5 μM, LPS-stimulated BV2, in words; for levels of IL-10 (ELISA): LPS-stimulated BV2, 5 μM implied
# [3] = type: in vivo, mouse; conditions: for concentration of metabolite formed, detected in plasma: mice given CBG 20 mg/kg, after 0.5 h
# [4] = after 0.5 h; cited from earlier work
# [5] = tested on: BV2 microglial cells stimulated with LPS; assay: Nitric oxide level in BV2 microglial cells stimulated with LPS; type: cell-based; conditions: highest reduction among analogs (Figure S8)
# [6] = tested on: CYP2J2, 3A4, 2D6, 2C9 and 2C8; type: in vitro ADME; conditions: human
# CYP2C8 [7] = conditions: human
# CYP2D6 [8] = target: T1, CYP2D6 (Homo sapiens, UniProt P10635)
# T1 sequence (P10635 whole entry): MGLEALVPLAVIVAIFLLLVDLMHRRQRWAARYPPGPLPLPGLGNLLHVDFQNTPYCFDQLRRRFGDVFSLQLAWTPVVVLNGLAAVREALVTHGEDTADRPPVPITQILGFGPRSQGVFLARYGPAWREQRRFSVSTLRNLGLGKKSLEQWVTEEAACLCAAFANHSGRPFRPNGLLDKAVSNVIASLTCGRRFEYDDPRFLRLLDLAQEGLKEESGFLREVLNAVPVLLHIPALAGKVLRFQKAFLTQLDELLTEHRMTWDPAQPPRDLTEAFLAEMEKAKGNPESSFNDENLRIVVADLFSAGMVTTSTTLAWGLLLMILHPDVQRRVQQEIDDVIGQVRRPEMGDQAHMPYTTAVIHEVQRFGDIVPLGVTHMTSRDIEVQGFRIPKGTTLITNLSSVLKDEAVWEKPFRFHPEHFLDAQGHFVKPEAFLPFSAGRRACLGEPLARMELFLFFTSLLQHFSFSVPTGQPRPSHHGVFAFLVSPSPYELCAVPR
# CYP2D6 [9] = target: T1, CYP2D6; assay: biochemical
# CYP3A4 = CYP3A4 (Homo sapiens, UniProt P08684); assay: Spectral
# Sequence of CYP3A4 (P08684 whole entry): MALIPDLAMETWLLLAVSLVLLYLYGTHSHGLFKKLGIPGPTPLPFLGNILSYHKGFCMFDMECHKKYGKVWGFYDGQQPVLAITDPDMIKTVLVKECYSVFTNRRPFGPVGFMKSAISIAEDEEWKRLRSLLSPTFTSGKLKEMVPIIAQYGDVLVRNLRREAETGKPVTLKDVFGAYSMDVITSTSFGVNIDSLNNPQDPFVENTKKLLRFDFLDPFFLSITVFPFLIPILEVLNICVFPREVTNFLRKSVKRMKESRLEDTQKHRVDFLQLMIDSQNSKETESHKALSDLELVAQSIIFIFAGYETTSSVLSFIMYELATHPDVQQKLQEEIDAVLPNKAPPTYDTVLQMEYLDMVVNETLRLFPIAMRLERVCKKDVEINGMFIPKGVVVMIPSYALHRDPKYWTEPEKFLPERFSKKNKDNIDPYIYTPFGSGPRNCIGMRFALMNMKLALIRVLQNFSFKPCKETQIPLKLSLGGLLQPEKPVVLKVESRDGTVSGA
# CYP2C8 [10] = assay: Spectral; conditions: presence versus absence of CBG
# [11] = tested on: human liver microsomes (HLM); assay: CBG metabolism by human liver microsomes, targeted mass spectrometry; type: in vitro ADME
compound,measurement,setting,value
"CCCCCc1cc(O)c(CC(O)C(C)(O)CCC=C(C)C)c(O)c1 (stereo not shown) [2′,3′-dihydroxy-CBG, 2′,3′-dihydroxy CBG]",effect on IL-6 level (pro-inflammatory activity),[1],concentration dependent reduction in IL-6 level
same,expression of the anti-inflammatory cytokines,[2],maximum expression of the anti-inflammatory cytokines
"CCCCCc1cc(O)c(C/C=C(\C)CCC2OC2(C)C)c(O)c1 (stereo not shown) [6′,7′-epoxy-CBG]","concentration of metabolite formed, detected in plasma",[3],7.5 nM
same,effect on IL-6 level (pro-inflammatory activity),[1],lowering in IL-6 expression
same,effect on IL-10 levels,[2],concentration dependent increase in IL-10 levels
"C=C(C)[C@@H]1CCC(C)=C[C@H]1c1c(O)cc(CCCCC)cc1O [CBD, cannabidiol]",level in human blood plasma,[4],~ 0.14 μM
"CCCCCc1cc(O)c(C/C=C(\C)CCC=C(C)C)c(O)c1 [CBG, Cannabigerol]",concentration at 0.5 h,"[3]; female, mouse, in vivo",500 to 700 nM
same,concentration at 2 h,"[3]; female, mouse, in vivo",~50 nM
same,% NO level,[5],64.1±5.9%
same,effect on IL-6 level (pro-inflammatory activity),[1],concentration dependent reduction in IL-6 level
same,IL-6 expression (ELISA),[1],414.2±75.2
same,effect on IL-10 levels,[2],concentration dependent increase in IL-10 levels
same,expression of the anti-inflammatory cytokines,[2],maximum expression of the anti-inflammatory cytokines
same,levels of IL-10 (ELISA),[2],236.03±12.35
same,"Km for formation of cyclo-CBG, CYP2J2 relative to 2D6 and 2C8",[6],1.5–2 times
same,Ks of CBG higher than for CYP2J2,CYP2C8 [7],~3 times
same,Ks for CBG binding lower than for TDZ binding,CYP2D6 [8],~3.5 times
same,Ks of CBG higher than for CYP2J2,CYP2D6 [8],~3 times
same,Ki,CYP2D6 [9],10 to 20 µM
same,Ki,CYP3A4,10 to 20 µM
"CC1=C(/C=C/C(C)=C/C=C/C(C)=C/C(=O)O)C(C)(C)CCC1 [RTA, all trans-retinoic acid]",increase of Ks on addition of RTA to CBG-bound CYP,CYP2C8 [10],~ 1.3 times
same,increase of ΔAmax on addition of RTA to CBG-bound CYP,CYP2C8 [10],~ 1.2 times
"CCCCCc1cc(O)c2c(c1)OC(C)(C)[C@@H]1CCC(C)=C[C@@H]21 [THC, Δ^9-tetrahydrocannabinol]",level in human blood plasma,[4],~ 0.06 μM
"C[C@]12CC[C@H]3[C@@H](CCC4=CC(=O)CC[C@@]43C)[C@@H]1CC[C@@H]2O [TST, testosterone, reference compound]",TST binds more strongly as compared to CBG,"CYP3A4; direct binding, TST versus CBG",~5 times
"CCCCCc1cc(O)c(C/C=C(\C)CCC(O)C(C)(C)O)c(O)c1 (stereo not shown) [carmagerol, 6′,7′-dihydroxy CBG]",% NO level,[5],60.0±6.03%
same,effect on IL-6 level (pro-inflammatory activity),[1],lowering in IL-6 expression; also recorded: highest reduction in the pro-inflammatory activity
same,IL-6 expression (ELISA),[1],307.8±159.1
same,effect on IL-10 levels,[2],concentration dependent increase in IL-10 levels
same,levels of IL-10 (ELISA),[2],159.5±16.7
CCCCCc1cc(O)c2c(c1)OC(C)(CCC=C(C)C)C(O)C2 (stereo not shown) [cyclo-CBG],"concentration of metabolite formed, detected in plasma",[3],1500 nM
same,"amount of cyclo-CBG relative to 6′,7′-epoxy-CBG in plasma",[3]; plasma of CBG treated mice,~ 100 times
same,"amount of cyclo-CBG produced relative to 6′,7′-epoxy-CBG",[11],~ 100 fold
"CCCCCc1cc(O)c(C/C=C(\C)CC/C=C(\C)CCC=C(C)C)c(O)c1 [sCBG, sesqicannabigerol]",effect on IL-6 level (pro-inflammatory activity),[1],concentration dependent reduction in IL-6 level
same,bioactivity compared to CBG metabolites having polar functional groups,"[1]; inflammatory cytokines in BV2 model, in words",does not significant bioactivity
